Data from ChEMBL document CHEMBL1137543, “Phenylimidazole derivatives as specific inhibitors of bacterial enoyl-acyl carrier protein reductase FabK” (Bioorg Med Chem, 2007).
In brackets after ≈: the same amount, converted by molar mass.

Experiments:
Streptococcus pneumoniae = assay: Antibacterial activity against Streptococcus pneumoniae KU197 mutant by broth microdilution method; type: functional
[1] = biological target: T1, Enoyl-(Acyl-carrier-protein) reductase (Streptococcus pneumoniae, UniProt Q9FBC5); assay: Inhibition of Streptococcus pneumoniae enoyl-ACP reductase FabK
T1 sequence (Q9FBC5 whole entry): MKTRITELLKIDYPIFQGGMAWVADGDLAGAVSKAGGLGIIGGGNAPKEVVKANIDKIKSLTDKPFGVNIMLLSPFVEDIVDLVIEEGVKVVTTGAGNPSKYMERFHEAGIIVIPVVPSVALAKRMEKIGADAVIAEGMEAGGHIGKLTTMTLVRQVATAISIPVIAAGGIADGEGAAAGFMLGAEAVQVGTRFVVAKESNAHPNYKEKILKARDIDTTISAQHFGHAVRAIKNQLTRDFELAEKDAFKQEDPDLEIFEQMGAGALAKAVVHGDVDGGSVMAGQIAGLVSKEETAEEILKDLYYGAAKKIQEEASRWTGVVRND

[2] = biological target: T2, Enoyl-[acyl-carrier-protein] reductase [NADH] FabI (Escherichia coli K-12, UniProt P0AEK4); assay: Inhibition of Escherichia coli enoyl-ACP reductase FabI
T2 sequence (P0AEK4 whole entry): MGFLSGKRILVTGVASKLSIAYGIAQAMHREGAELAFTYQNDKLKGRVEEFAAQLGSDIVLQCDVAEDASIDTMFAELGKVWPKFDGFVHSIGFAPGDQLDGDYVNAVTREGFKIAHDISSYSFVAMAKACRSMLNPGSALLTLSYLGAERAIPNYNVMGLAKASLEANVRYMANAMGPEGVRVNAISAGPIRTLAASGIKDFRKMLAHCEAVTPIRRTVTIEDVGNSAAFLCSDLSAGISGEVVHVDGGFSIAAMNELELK

K562 = assay: Cytotoxicity against human K562 cells; type: functional, cell-based

Structure (SMILES) | MIC (Streptococcus pneumoniae) [µg/mL] | IC50 [1] [µM] | IC50 [2] [µM] | IC50 (K562) [µM]
NC(=O)c1ccc(Sc2cnc(NC(=O)NCc3nc(-c4ccccc4)c[nH]3)s2)cc1 | 2 (≈ 4.44 µM) | 0.037 | > 32 | –
O=C(NCc1nc(-c2ccccc2)c[nH]1)Nc1ncc(Sc2ccc(C(=O)O)cc2)s1 | 8 (≈ 17.7 µM) | 0.098 | > 32 | –
O=C(CO/N=C/c1cccc([N+](=O)[O-])c1)Nc1nc2ccccc2s1 | > 32 | 1.1 | > 32 | –
O=C(CSc1nc2ccccc2[nH]1)NCc1nc2ccccc2s1 | > 32 | > 32 | > 32 | –
CS(=O)(=O)c1ccc2nc(NC(=O)NCc3ccc(-c4ccccn4)s3)sc2c1 | > 32 | 3.4 | > 32 | –
CS(=O)(=O)c1ccc2nc(NC(=O)NCc3cccnc3)sc2c1 | > 32 | 23 | > 32 | –
CS(=O)(=O)c1ccc2nc(NC(=O)NCCc3cnc[nH]3)sc2c1 | – | > 32 | > 32 | –
O=C(Nc1nc2ccccc2s1)OCc1nc2ccccc2[nH]1 | > 32 | > 32 | > 32 | –
COc1cccc2sc(NC(=O)NCc3nc4ccccc4[nH]3)nc12 | – | > 32 | > 32 | –
COc1ccc2sc(NC(=O)NCc3nc4ccccc4[nH]3)nc2c1 | – | > 32 | > 32 | –
O=C(NCc1nc(-c2ccccc2)c[nH]1)Nc1ncc(-c2ccccc2)s1 | 4 (≈ 10.7 µM) | 0.38 | > 32 | –
O=C(NCc1nc(-c2ccccc2)c[nH]1)Nc1ncc(Sc2ccccc2)s1 | 2 (≈ 4.91 µM) | 0.037 | > 33 | –
Cc1ccc2nc(NC(=O)NCc3nc4ccccc4[nH]3)sc2c1 | 16 (≈ 47.4 µM) | 2.6 | > 32 | –
N#Cc1ccc2nc(NC(=O)NCc3nc4ccccc4[nH]3)sc2c1 | 8 (≈ 23 µM) | 4.5 | > 32 | –
CS(=O)(=O)c1ccc2nc(NC(=O)NCc3nc4ccccc4[nH]3)sc2c1 | 4 (≈ 9.96 µM) | 0.74 | > 32 | –
O=C(NCc1ncc(-c2ccccc2)[nH]1)Nc1ncc(Sc2ccccn2)s1 | 2 (≈ 4.9 µM) | – | > 32 | –
O=C(NCc1ncc(-c2ccc(Br)cc2)[nH]1)Nc1ncc(Sc2ccccn2)s1 | 0.25 (≈ 0.513 µM) | – | > 32 | > 20
CS(=O)(=O)c1ccc2nc(NC(=O)NCc3nc(-c4ccccc4)c[nH]3)sc2c1 | 0.5 (≈ 1.17 µM) | 0.088 | > 32 | –
O=C(NCc1ncc(-c2cccc(Br)c2)[nH]1)Nc1ncc(Sc2ccccn2)s1 | 16 (≈ 32.8 µM) | – | > 32 | –
O=C(CSc1nc2ccccc2[nH]1)Nc1nc2ccccc2s1 | > 32 | > 32 | > 32 | –
O=C(NCc1ncc(-c2ccc(Cl)c(Cl)c2)[nH]1)Nc1ncc(Sc2ccccn2)s1 | 1 (≈ 2.09 µM) | 0.0037 | > 32 | –
O=C(NCc1nc(-c2ccccc2)c[nH]1)Nc1nc(-c2ccccc2)cs1 | – | > 32 | > 32 | –
O=C(NCc1nc2ccccc2[nH]1)Nc1nc2ccccc2s1 | 32 (≈ 99 µM) | 6.9 | > 32 | –
O=C(NCc1nc2ccccc2[nH]1)Nc1nc2ccc(F)cc2s1 | – | 6.4 | > 32 | –
CS(=O)(=O)c1ccc2nc(NC(=O)NCc3cccs3)sc2c1 | > 32 | 30 | > 32 | –
COc1ccc2nc(NC(=O)NCc3nc4ccccc4[nH]3)sc2c1 | 16 (≈ 45.3 µM) | 2 | > 32 | –
Oc1cc(Cl)ccc1Oc1ccc(Cl)cc1Cl [TRICLOSAN] | – | > 32 | – | –
